Laboratory results: publication PMC7584476, “Safety and efficacy of BAY1436032 in IDH1-mutant AML: phase I study results” (Leukemia, 2020)
“Also recorded” adds a separate entry of the source.

System: subjects with mIDH1 advanced AML
Assay: Phase I study: safety and tolerability (TEAE, DLT, MTD, ECG)
Type: in vivo
Experimental: This study was an open-label, nonrandomized, multicenter phase I trial. Subjects were screened at 13 hospital sites in 2 countries (USA and Germany). The study was to consist of dose-escalation followed by dose-expansion. The MTD identified in dose-escalation was to be used in the dose-expansion. If MTD was not reached in dose-escalation, a dose for the expansion would be selected based on available PK, pharmacodynamic, safety, and efficacy data. BAY1436032 was administered twice-daily (BID) in continuous 28-day cycles. In dose-escalation, up to 9 evaluable subjects could be enrolled per cohort, with a minimum of 3 dose-limiting toxicity (DLT)-free evaluable subjects required prior to escalating to the next highest dose. Bayesian dose-DLT modeling was performed to help guide dosing decisions.
DLTs were differentially defined for nonhematopoietic versus hematopoietic toxicities. Nonhematopoietic toxicities of ≥grade 3 occurring during the first cycle of treatment were to be considered DLTs with the following exceptions: (1) Alopecia and nausea controlled by medical management; (2) Tumor lysis syndrome if successfully managed clinically and resolved within 7 days without any end-organ damage; (3) Differentiation syndrome (DS) if successfully managed clinically and resolved within 7 days without any end-organ damage; (4) Asymptomatic ≥grade 3 electrolyte abnormalities not considered clinically significant by the investigator. […] For certain toxicities such as laboratory assessments without a clear clinical correlate, a discussion between the investigator and the sponsor determined whether the adverse event (AE) should be assessed as a DLT.
DLTs identified during the first cycle of treatment were used to guide dose-escalation decisions and to determine the MTD, and if safety issues appeared in subsequent cycles they were also to be considered. Hydroxyurea was permitted during the first cycle if white blood cell (WBC) exceeded 20 × 10^9/L and was also permitted for treatment of DS.
Safety and tolerability were evaluated by analysis of adverse events, physical examinations, vital signs, ECOG performance status, and various laboratory assessments. For safety monitoring, subjects were scheduled for clinic visits every week for the initial three cycles of treatment, after which time visits could be reduced to every-other-week with investigator and sponsor agreement. Cardiac function was assessed with triplicate 12-lead electrocardiograms (ECG) at screening, C1-D1, C1-D2, C1-D15, D1 of every subsequent cycle, and at treatment end. […] AEs are presented by the Medical Dictionary for Regulatory Activities (MedDRA) v21.1.

## C[C@H]1C[C@@H](n2c(Nc3ccc(OC(F)(F)F)cc3)nc3cc(CCC(=O)O)ccc32)CC(C)(C)C1 [BAY1436032]
1500 mg BID, n=9
  TEAE Sepsis Grade 5: 1
  TEAE Sinus tachycardia Grade 1: 1
  TEAE Thrombocytopenia Grade 4: 2
  TEAE Vomiting Grade 1: 3
  TEAE Weight decreased Grade 1: 0
  TEAE Weight decreased Grade 2: 0
  TEAE Weight decreased Grade 3: 1
27 treated
  Deaths during treatment or within 30 days of discontinuation: Six of 27
  Related TEAE DS grade 3: single subject
  Related TEAE Fatigue Grade 3: single subject
  Related TEAE amylase increase grade 3: single subject
  Related TEAE anemia grade 4: single subject
  Related TEAE decreased WBC count grade 3: single subject
  Related TEAE decreased neutrophil count grade 4: single subject
  Related TEAE decreased platelet count grade 4: single subject
  Related TEAE febrile neutropenia grade 3: single subject
  Related TEAE hyponatremia grade 3: single subject
  Related TEAE ileus grade 4: single subject
  Related TEAE lung infiltration grade 3: single subject
  Related TEAE peripheral edema grade 3: single subject
  Related TEAE pneumonitis grade 3: single subject
  Related TEAE sepsis grade 4: single subject
  Subjects with DS or symptoms associated with DS: 19%
  Subjects with at least 1 TEAE of any grade related to BAY1436032: Seventeen of 27
  Subjects with at least 1 TEAE of ≥grade 3 related to BAY1436032: Seven of 27
  Subjects with at least 1 TEAE ≥ grade 3 irrespective of relationship: Twenty-four
300 to 1500 mg BID
  Maximum tolerated dose: not identified; also recorded: No MTD was identified
Total, n=27
  Related TEAE Decreased appetite Grade 1: 1 (4) n (%)
  Related TEAE Decreased appetite Grade 2: 1 (4) n (%)
  Related TEAE Diarrhea Grade 2: 2 (7) n (%)
  Related TEAE Differentiation syndrome Grade 2: 1 (4) n (%)
  Related TEAE Differentiation syndrome Grade 3: 1 (4) n (%)
  Related TEAE Dyspnea Grade 1: 2 (7) n (%)
  Related TEAE Dyspnea Grade 2: 1 (4) n (%)
  Related TEAE Fatigue Grade 1: 1 (4) n (%)
  Related TEAE Fatigue Grade 2: 2 (7) n (%)
  Related TEAE Fatigue Grade 3: 1 (4) n (%)
  Related TEAE Hypomagnesaemia Grade 1: 2 (7) n (%)
  Related TEAE Nausea Grade 1: 4 (15) n (%)
  Related TEAE Nausea Grade 2: 1 (4) n (%)
  Related TEAE Sinus tachycardia Grade 1: 2 (7) n (%)
  Related TEAE Vomiting Grade 1: 4 (15) n (%)
  TEAE Abdominal pain upper Grade 1: 2 (7) n (%)
  TEAE Abdominal pain upper Grade 2: 1 (4) n (%)
  TEAE Acute kidney injury Grade 1: 1 (4) n (%)
  TEAE Acute kidney injury Grade 2: 1 (4) n (%)
  TEAE Acute kidney injury Grade 3: 1 (4) n (%)
  TEAE Anaemia Grade 3: 4 (15) n (%)
  TEAE Anaemia Grade 4: 1 (4) n (%)
  TEAE Anxiety Grade 1: 2 (7) n (%)
  TEAE Anxiety Grade 2: 1 (4) n (%)
  TEAE Arthralgia Grade 1: 1 (4) n (%)
  TEAE Arthralgia Grade 2: 2 (7) n (%)
  TEAE Constipation Grade 1: 4 (15) n (%)
  TEAE Constipation Grade 2: 1 (4) n (%)
  TEAE Contusion Grade 1: 3 (11) n (%)
  TEAE Contusion Grade 2: 1 (4) n (%)
  TEAE Cough Grade 1: 3 (11) n (%)
  TEAE Cough Grade 2: 2 (7) n (%)
  TEAE Decreased appetite Grade 1: 5 (19) n (%)
  TEAE Decreased appetite Grade 2: 3 (11) n (%)
  TEAE Decreased appetite Grade 3: 1 (4) n (%)
  TEAE Diarrhea Grade 1: 7 (26) n (%)
  TEAE Diarrhea Grade 2: 3 (11) n (%)
  TEAE Dry skin Grade 1: 5 (19) n (%)
  TEAE Dyspnoea Grade 1: 4 (15) n (%)
  TEAE Dyspnoea Grade 2: 2 (7) n (%)
  TEAE Dyspnoea Grade 3: 3 (11) n (%)
  TEAE Epistaxis Grade 1: 3 (11) n (%)
  TEAE Epistaxis Grade 2: 2 (7) n (%)
  TEAE Epistaxis Grade 3: 1 (4) n (%)
  TEAE Fall Grade 1: 4 (15) n (%)
  TEAE Fatigue Grade 1: 4 (15) n (%)
  TEAE Fatigue Grade 2: 4 (15) n (%)
  TEAE Fatigue Grade 3: 3 (11) n (%)
  TEAE Febrile neutropenia Grade 3: 7 (26) n (%)
  TEAE General physical health deterioration Grade 3: 2 (7) n (%)
  TEAE General physical health deterioration Grade 5: 1 (4) n (%)
  TEAE Gingivitis Grade 1: 3 (11) n (%)
  TEAE Haematuria Grade 1: 2 (7) n (%)
  TEAE Haematuria Grade 2: 1 (4) n (%)
  TEAE Haematuria Grade 3: 1 (4) n (%)
  TEAE Headache Grade 1: 1 (4) n (%)
  TEAE Headache Grade 2: 2 (7) n (%)
  TEAE Headache Grade 3: 1 (4) n (%)
  TEAE Hyperkalaemia Grade 1: 2 (7) n (%)
  TEAE Hyperkalaemia Grade 4: 1 (4) n (%)
  TEAE Hypertension Grade 2: 2 (7) n (%)
  TEAE Hypertension Grade 3: 1 (4) n (%)
  TEAE Hyperuricaemia Grade 1: 4 (15) n (%)
  TEAE Hyperuricaemia Grade 3: 1 (4) n (%)
  TEAE Hypokalaemia Grade 1: 3 (11) n (%)
  TEAE Hypokalaemia Grade 2: 1 (4) n (%)
  TEAE Hypokalaemia Grade 3: 2 (7) n (%)
  TEAE Hyponatraemia Grade 1: 2 (7) n (%)
  TEAE Hyponatraemia Grade 3: 1 (4) n (%)
  TEAE Hypophosphataemia Grade 1: 1 (4) n (%)
  TEAE Hypophosphataemia Grade 2: 2 (7) n (%)
  TEAE Leukocytosis Grade 2: 2 (7) n (%)
  TEAE Leukocytosis Grade 3: 2 (7) n (%)
  TEAE Lung infection Grade 3: 3 (11) n (%)
  TEAE Lung infection Grade 5: 1 (4) n (%)
  TEAE Nausea Grade 1: 5 (19) n (%)
  TEAE Nausea Grade 2: 2 (7) n (%)
  TEAE Nausea Grade 3: 2 (7) n (%)
  TEAE Oedema peripheral Grade 1: 6 (22) n (%)
  TEAE Oedema peripheral Grade 3: 2 (7) n (%)
  TEAE Pain in extremity Grade 1: 2 (7) n (%)
  TEAE Pain in extremity Grade 2: 1 (4) n (%)
  TEAE Pneumonia Grade 1: 1 (4) n (%)
  TEAE Pneumonia Grade 2: 2 (7) n (%)
  TEAE Pneumonia Grade 3: 3 (11) n (%)
  TEAE Pneumonia fungal Grade 2: 1 (4) n (%)
  TEAE Pneumonia fungal Grade 3: 1 (4) n (%)
  TEAE Pneumonia fungal Grade 4: 1 (4) n (%)
  TEAE Productive cough Grade 1: 2 (7) n (%)
  TEAE Productive cough Grade 2: 1 (4) n (%)
  TEAE Pyrexia Grade 1: 4 (15) n (%)
  TEAE Pyrexia Grade 2: 1 (4) n (%)
  TEAE Pyrexia Grade 3: 3 (11) n (%)
  TEAE Rash Grade 1: 1 (4) n (%)
  TEAE Rash Grade 2: 3 (11) n (%)
  TEAE Sepsis Grade 4: 3 (11) n (%)
  TEAE Sepsis Grade 5: 2 (7) n (%)
  TEAE Sinus tachycardia Grade 1: 3 (11) n (%)
  TEAE Thrombocytopenia Grade 4: 3 (11) n (%)
  TEAE Vomiting Grade 1: 7 (26) n (%)
  TEAE Weight decreased Grade 1: 3 (11) n (%)
  TEAE Weight decreased Grade 2: 3 (11) n (%)
  TEAE Weight decreased Grade 3: 1 (4) n (%)
Count of 27 treated
  Subjects with DS or symptoms associated with DS: Five of 27
Grade 4 ileus, subject 21, cohort 4
  Dose-limiting toxicities: single DLT
In vivo
  Clinically significant ECG changes such as QTc prolongation related to treatment: no clinically significant ECG
  Deaths attributed to study drug: none
  Episodes of ≥grade 3 QT prolongation: no episodes
